Tested on: prokaryotic transcription-translation (E. coli S30 extract)
Experiment: In vitro assay for inhibition of prokaryotic transcription-translation (Promega E. coli S30 Extract System, pBESTluc luciferase readout)
Assay type: biochemical
Settings: 2 uM compound, 2 h at 37° C., luciferase luminescence
Experimental: In vitro assay for inhibition of prokaryotic transcription-translation [as described in the following references: 1. Zubay, G. (1973) In vitro synthesis of protein in microbial systems. Annu. Rev. Genet. 7, 267.87. 2. Zubay, G. (1980) The isolation and properties of CAP, the catabolite gene activator. Meth. Enzymol. 65, 856.77]. Antibiotic and compound dilutions: stock solutions of compound to be assayed at 2 μM are 80 μM in 40% DMSO. Stock solutions of compounds to be assayed at 10 μM are 400 μM in 40% DMSO.
Assay setup and protocol for Promega E. coli S30 Extract System
The assay is performed as follows: pipet 3.5 μl of 286 ng/μl template DNA (pBESTluc™) into assay wells. Negative control wells receive sdH2O only. Transfer 0.5 μl of 40× compound stock solution to assay wells. Positive control wells (no compound) receive 0.5 μl 40% DMSO sdH2O. Pipet 16 μl of master mix into assay wells. Incubate plate for two hours at 37° C. Rapidly chill the assay plate on ice for five minutes to stop the reaction. Add an equal volume (20 μl) of room temperature Steady-Glo® Luciferase assay reagent to all assay wells. Incubate 20 minutes and read light emitted with luminometer. Results are reported as % inhibition a 2 μM or 10 μM.

Row | Structure (SMILES) | % inh. @ 2 uM
1 | CNC(=O)C[C@@H]1NC(=O)c2csc(n2)-c2ccc(-c3nc(NC(=O)N(CCCC(=O)O)[C@H]4CC[C@H](C(=O)O)CC4)cs3)nc2-c2csc(n2)-c2csc(n2)[C@H]([C@@H](O)c2ccccc2)NC(=O)CNC(=O)c2nc(sc2COC)C(C(C)C)NC(=O)c2nc1sc2C (stereo partly shown) [Compound 23] | 2 uM = 79.8%
2 | CNC(=O)C[C@@H]1NC(=O)c2csc(n2)-c2ccc(-c3nc(N(CCOCC(=O)O)C(=O)O[C@H]4CC[C@H](C(=O)O)CC4)cs3)nc2-c2csc(n2)-c2csc(n2)[C@H]([C@@H](O)c2ccccc2)NC(=O)CNC(=O)c2nc(sc2COC)C(C(C)C)NC(=O)c2nc1sc2C (stereo partly shown) [Compound 24] | 2 uM = 70.3%
3 | CNC(=O)C[C@@H]1NC(=O)c2csc(n2)-c2ccc(-c3nc(N(CCCCC(=O)O)C(=O)O[C@H]4CC[C@](CCCCC(=O)O)(C(=O)OC)CC4)cs3)nc2-c2csc(n2)-c2csc(n2)[C@H]([C@@H](O)c2ccccc2)NC(=O)CNC(=O)c2nc(sc2COC)C(C(C)C)NC(=O)c2nc1sc2C (stereo partly shown) [Compound 25] | 2 uM = 83.7%
4 | CNC(=O)C[C@@H]1NC(=O)c2csc(n2)-c2ccc(-c3nc(N(CCCCC(=O)O)C(=O)OC(CCCCC(=O)O)CCC(=O)O)cs3)nc2-c2csc(n2)-c2csc(n2)[C@H]([C@@H](O)c2ccccc2)NC(=O)CNC(=O)c2nc(sc2COC)C(C(C)C)NC(=O)c2nc1sc2C (stereo partly shown) [Compound 26] | 2 uM = 68.2%
5 | CNC(=O)C[C@@H]1NC(=O)c2csc(n2)-c2ccc(-c3nc(N(CCCCC(=O)O)C(=O)OCC4CC4C(=O)O)cs3)nc2-c2csc(n2)-c2csc(n2)[C@H]([C@@H](O)c2ccccc2)NC(=O)CNC(=O)c2nc(sc2COC)C(C(C)C)NC(=O)c2nc1sc2C (stereo partly shown) [Compound 27] | 2 uM = 81.9%
6 | CNC(=O)C[C@@H]1NC(=O)c2csc(n2)-c2ccc(-c3nc(N(CCCCC(CCC(=O)O)C(=O)O)C(=O)O[C@H]4CC[C@H](C(=O)O)CC4)cs3)nc2-c2csc(n2)-c2csc(n2)[C@H]([C@@H](O)c2ccccc2)NC(=O)CNC(=O)c2nc(sc2COC)C(C(C)C)NC(=O)c2nc1sc2C (stereo partly shown) [Compound 28] | 2 uM = 77.0%
7 | CNC(=O)C[C@@H]1NC(=O)c2csc(n2)-c2ccc(-c3nc(N(CCCCC(=O)O)C(=O)O[C@H]4CC[C@H](C(=O)O)C[C@@H]4CCCCC(=O)O)cs3)nc2-c2csc(n2)-c2csc(n2)[C@H]([C@@H](O)c2ccccc2)NC(=O)CNC(=O)c2nc(sc2COC)C(C(C)C)NC(=O)c2nc1sc2C (stereo partly shown) [Compound 29] | 2 uM = 79.6%
8 | CNC(=O)C[C@@H]1NC(=O)c2csc(n2)-c2ccc(-c3nc(N(CCCCC(=O)O)C(=O)OCCC(CCCCC(=O)O)C(=O)O)cs3)nc2-c2csc(n2)-c2csc(n2)[C@H]([C@@H](O)c2ccccc2)NC(=O)CNC(=O)c2nc(sc2COC)C(C(C)C)NC(=O)c2nc1sc2C (stereo partly shown) [Compound 30] | 2 uM = 83.93%
9 | CNC(=O)C[C@@H]1NC(=O)c2csc(n2)-c2ccc(-c3nc(N(CCCC(CCCCCCC(=O)O)C(=O)O)C(=O)O[C@H]4CC[C@H](C(=O)O)CC4)cs3)nc2-c2csc(n2)-c2csc(n2)[C@H]([C@@H](O)c2ccccc2)NC(=O)CNC(=O)c2nc(sc2COC)C(C(C)C)NC(=O)c2nc1sc2C (stereo partly shown) [Compound 31] | 2 uM = 79.4%
10 | CNC(=O)C[C@@H]1NC(=O)c2csc(n2)-c2ccc(-c3nc(N(CCCCC(=O)O)C(=O)OCC(CCCCC(=O)O)CC(=O)O)cs3)nc2-c2csc(n2)-c2csc(n2)[C@H]([C@@H](O)c2ccccc2)NC(=O)CNC(=O)c2nc(sc2COC)C(C(C)C)NC(=O)c2nc1sc2C (stereo partly shown) [Compound 32] | 2 uM = 78.0%
11 | CNC(=O)C[C@@H]1NC(=O)c2csc(n2)-c2ccc(-c3nc(N(CCCCC(=O)O)C(=O)O[C@H]4CC[C@@](CCCCC(=O)O)(C(=O)O)CC4)cs3)nc2-c2csc(n2)-c2csc(n2)[C@H]([C@@H](O)c2ccccc2)NC(=O)CNC(=O)c2nc(sc2COC)C(C(C)C)NC(=O)c2nc1sc2C (stereo partly shown) [Compound 33] | 2 uM = 46.8%
12 | CNC(=O)C[C@@H]1NC(=O)c2csc(n2)-c2ccc(-c3nc(N(CCCCC(=O)O)C(=O)O[C@]4(CCCCC(=O)O)CC[C@@H](C(=O)O)CC4)cs3)nc2-c2csc(n2)-c2csc(n2)[C@H]([C@@H](O)c2ccccc2)NC(=O)CNC(=O)c2nc(sc2COC)C(C(C)C)NC(=O)c2nc1sc2C (stereo partly shown) [Compound 34] | 2 uM = 63.1%
13 | CNC(=O)C[C@@H]1NC(=O)c2csc(n2)-c2ccc(-c3nc(NC(=O)OCCC(CCCCC(=O)O)C(=O)O)cs3)nc2-c2csc(n2)-c2csc(n2)[C@H]([C@@H](O)c2ccccc2)NC(=O)CNC(=O)c2nc(sc2COC)C(C(C)C)NC(=O)c2nc1sc2C (stereo partly shown) [Compound 35] | 2 uM = 87.0%

Source: patent US9492496B2, “Aminothiazoles and their uses” (Novartis AG, priority 2007, dated 2016)
